Among the data in patent publication US9284333B2, “Fused pyrroledicarboxamides and their use as pharmaceuticals” (SANOFI, priority 2012, dated 2016) are inhibition and IC50 values, retold here.

Chain of Human TASK-1 channels (O14649 whole entry, the tested form may be a part): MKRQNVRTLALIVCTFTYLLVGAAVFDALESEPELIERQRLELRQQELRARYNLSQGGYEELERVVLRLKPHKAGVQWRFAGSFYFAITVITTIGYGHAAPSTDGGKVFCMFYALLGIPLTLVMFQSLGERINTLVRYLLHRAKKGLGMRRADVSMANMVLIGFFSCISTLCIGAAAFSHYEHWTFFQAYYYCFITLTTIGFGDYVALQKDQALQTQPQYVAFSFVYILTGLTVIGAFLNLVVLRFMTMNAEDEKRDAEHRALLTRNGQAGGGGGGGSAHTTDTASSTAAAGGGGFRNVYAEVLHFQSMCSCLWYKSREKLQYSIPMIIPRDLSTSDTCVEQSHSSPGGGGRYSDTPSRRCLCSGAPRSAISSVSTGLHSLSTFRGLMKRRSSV

One test deals with Human TASK-1 channels (Homo sapiens (Human), UniProt O14649). The test is described as follows: Determination of the activity on the TASK-1 channel in Xenopus oocytes (two-microelectrode voltage clamp). In kind it is cell-based. The settings on record: compound concentration 5 μM. In outline:
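Xenopus oocytes were injected with human TASK-1 cRNA and recorded two days later by two-microelectrode voltage clamp, holding at −90 mV with 500 ms steps to 40 mV. Superfusion used ND96, pH 7.4, at room temperature, with rising compound concentrations; percentage inhibition of control current was fitted to a dose-response curve for IC50.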
`CC[C@@H](NC(=O)c1cc(C(=O)NCC2(c3ccccc3)CCCC2)n2c1CCCC2)c1ccccc1` [16ng, 5,6,7,8-Tetrahydro-indolizine-1,3-dicarboxylic acid 3-[(1-phenyl-cyclopentylmethyl)-amide] 1-[((R)-1-phenyl-propyl)-amide]] yielded an inhibition at 5 µM of 55%.

The compound `CC[C@H](NC(=O)c1cc(C(=O)N[C@H](C)c2ncccn2)c2n1CCOC2)c1ccccc1` [16kg, 3,4-Dihydro-1H-pyrrolo[2,1-c][1,4]oxazine-6,8-dicarboxylic acid 6-[((S)-1-phenyl-propyl)-amide] 8-[((R)-1-pyrimidin-2-yl-ethyl)-amide]] gave an inhibition at 5 µM of 70%.

Still in this test, the particulars now being: human TASK-1 expressed in Xenopus oocytes, room temperature; read-out: IC50 value for TASK-1 inhibition.
Take `CC[C@@H](NC(=O)c1cc(C(=O)N2CCC[C@H]2C)c2n1CCOC2)c1ccccc1` [16kj, 8-((R)-2-Methyl-pyrrolidine-1-carbonyl)-3,4-dihydro-1H-pyrrolo[2,1-c][1,4]oxazine-6-carboxylic acid ((R)-1-phenyl-propyl)-amide]: the IC50 was 270 nM.

On to `CC[C@@H](NC(=O)c1cc(C(=O)N[C@H]2CCc3ccccc32)n2c1COCC2)c1ccccc1` [16gj, 3,4-Dihydro-1H-pyrrolo[2,1-c][1,4]oxazine-6,8-dicarboxylic acid 6-(S)-indan-1-ylamide 8-[((R)-1-phenyl-propyl)-amide]], for which the IC50 came out at 48 nM.

`O=C(N[C@H](c1ccc(F)cc1)C1CC1)c1cc(C(=O)N2CCCC2)n2c1COCC2` [16dh, 6-(Pyrrolidine-1-carbonyl)-3,4-dihydro-1H-pyrrolo[2,1-c][1,4]oxazine-8-carboxylic acid [(S)-cyclopropyl-(4-fluoro-phenyl)-methyl]-amide]: the IC50 was 290 nM.

For `CCOC(=O)CN(C)C(=O)c1cc(C(=O)N[C@H](CC)c2ccccc2)c2n1CCOC2` [16iy, {Methyl-[8-((R)-1-phenyl-propylcarbamoyl)-3,4-dihydro-1H-pyrrolo[2,1-c][1,4]oxazine-6-carbonyl]-amino}-acetic acid ethyl ester], the half-inhibitory concentration (IC50) is 270 nM.

On to `CC[C@@H](NC(=O)c1cc(C(=O)N2CCC[C@@H]2C)n2c1COCC2)c1ccc(OC)cc1` [16at, 6-((S)-2-Methyl-pyrrolidine-1-carbonyl)-3,4-dihydro-1H-pyrrolo[2,1-c][1,4]oxazine-8-carboxylic acid [(R)-1-(4-methoxy-phenyl)-propyl]-amide], for which the half-maximal inhibitory concentration (IC50) worked out at 400 nM.

With `CC[C@@H](NC(=O)c1cc(C(=O)N2CCC[C@H]2C)n2c1COCC2)c1ccc(C(F)(F)F)nc1` [16ny, 6-((R)-2-Methyl-pyrrolidine-1-carbonyl)-3,4-dihydro-1H-pyrrolo[2,1-c][1,4]oxazine-8-carboxylic acid [(R)-1-(6-trifluoromethyl-pyridin-3-yl)-propyl]-amide], the half-inhibitory concentration (IC50) is 2800 nM.

Turning to `CC[C@@H](NC(=O)c1cc(C(=O)N(C)CC(=O)OC(C)C)n2c1COCC2)c1ccccc1` [16iu, {Methyl-[8-((R)-1-phenyl-propylcarbamoyl)-3,4-dihydro-1H-pyrrolo[2,1-c][1,4]oxazine-6-carbonyl]-amino}-acetic acid isopropyl ester], the IC50 came to 120 nM.

For `CC[C@@H](NC(=O)c1cc(C(=O)N2CCC[C@@H]2C)n2c1COCC2)c1ccc(C#N)s1` [16rd, 6-((S)-2-Methyl-pyrrolidine-1-carbonyl)-3,4-dihydro-1H-pyrrolo[2,1-c][1,4]oxazine-8-carboxylic acid [(R)-1-(5-cyano-thiophen-2-yl)-propyl]-amide], the concentration for half-maximal inhibition (IC50) was 450 nM.

On to `CC[C@@H](NC(=O)c1cc(C(=O)N[C@H](C)c2ccc(F)cc2)c2n1CSC2)c1ccccc1` [16kw, 1H-Pyrrolo[1,2-c]thiazole-5,7-dicarboxylic acid 7-{[(R)-1-(4-fluoro-phenyl)-ethyl]-amide} 5-[((R)-1-phenyl-propyl)-amide]], for which the IC50 came out at 95 nM.

`CC[C@@H](NC(=O)c1cc(C(=O)N[C@@H]2CCc3ccccc32)n2c1COCC2)c1ccccc1` [16gp, 3,4-Dihydro-1H-pyrrolo[2,1-c][1,4]oxazine-6,8-dicarboxylic acid 6-(R)-indan-1-ylamide 8-[((R)-1-phenyl-propyl)-amide]]: the IC50 was found to be 570 nM.

For the compound `CC[C@@H](NC(=O)c1cc(C(=O)N(C)CC2CCOCC2)n2c1COCC2)c1ccccc1` [16gd, 3,4-Dihydro-1H-pyrrolo[2,1-c][1,4]oxazine-6,8-dicarboxylic acid 6-[methyl-(tetrahydro-pyran-4-ylmethyl)-amide] 8-[((R)-1-phenyl-propyl)-amide]], the half-maximal inhibitory concentration (IC50) is 5400 nM.

`C[C@@H](NC(=O)c1cc(C(=O)N2CCC[C@@H]2C(F)(F)F)c2n1CCOC2)c1ccc(F)cc1` [16dk, 8-((R)-2-Trifluoromethyl-pyrrolidine-1-carbonyl)-3,4-dihydro-1H-pyrrolo[2,1-c][1,4]oxazine-6-carboxylic acid [(R)-1-(4-fluoro-phenyl)-ethyl]-amide]: the half-inhibitory concentration (IC50) turned out to be 160 nM.

For the compound `CC[C@@H](NC(=O)c1cc(C(=O)NCc2cnco2)c2n1CCCC2)c1ccccc1` [16mc, 5,67,8-Tetrahydro-indolizine-1,3-dicarboxylic acid 1-[(oxazol-5-ylmethyl)-amide] 3-[((R)-1-phenyl-propyl)-amide]], the half-maximal inhibitory concentration (IC50) came to 620 nM.

For `CC[C@@H](NC(=O)c1cc(C(=O)N2CCC[C@@H]2C)n2c1COCC2)c1cnc(C#N)c(Cl)c1` [16rf, 6-((S)-2-Methyl-pyrrolidine-1-carbonyl)-3,4-dihydro-1H-pyrrolo[2,1-c][1,4]oxazine-8-carboxylic acid [(R)-1-(5-chloro-6-cyano-pyridin-3-yl)-propyl]-amide], the IC50 turned out to be 1000 nM.

For `CC[C@@H](NC(=O)c1cc(C(=O)NC2CC2)n2c1COCC2)c1ccccc1` [16gi, 3,4-Dihydro-1H-pyrrolo[2,1-c][1,4]oxazine-6,8-dicarboxylic acid 6-cyclopropylamide 8-[((R)-1-phenyl-propyl)-amide]], the IC50 was 1300 nM.

For the compound `CC[C@@H](NC(=O)c1cc(C(=O)N[C@H](CC)c2ncccn2)c2n1CCOC2)c1ccc(C(F)(F)F)cc1` [16lb, 3,4-Dihydro-1H-pyrrolo[2,1-c][1,4]oxazine-6,8-dicarboxylic acid 8-[((R)-1-pyrimidin-2-yl-propyl)-amide] 6-{[(R)-1-(4-trifluoromethyl-phenyl)-propyl]-amide}], the IC50 is 65 nM.

Regarding `CC[C@@H](NC(=O)c1cc(C(=O)N[C@H](C)c2ccc(F)cc2)c2n1CCS2)c1ccccc1` [16ku, 2,3-Dihydro-pyrrolo[2,1-b]thiazole-5,7-dicarboxylic acid 7-{[(R)-1-(4-fluoro-phenyl)-ethyl]-amide} 5-[((R)-1-phenyl-propyl)-amide]], the IC50 is 87 nM.

Take `CC[C@@H](NC(=O)c1cc(C(=O)N2CCC[C@@H]2CNC(C)=O)n2c1COCC2)c1ccccc1` [16fh, 6-[(R)-2-(Acetylamino-methyl)-pyrrolidine-1-carbonyl]-3,4-dihydro-1H-pyrrolo[2,1-c][1,4]oxazine-8-carboxylic acid ((R)-1-phenyl-propyl)-amide]: the concentration for half-maximal inhibition (IC50) was found to be 5200 nM.

Take `CC[C@@H](NC(=O)c1cc(C(=O)Nc2c(C)noc2C)n2c1CCCC2)c1ccccc1` [16nd, 5,6,7,8-Tetrahydro-indolizine-1,3-dicarboxylic acid 3-[(3,5-dimethyl-isoxazol-4-yl)-amide] 1-[((R)-1-phenyl-propyl)-amide]]: the concentration for half-maximal inhibition (IC50) is 210 nM.

As for `CC[C@@H](NC(=O)c1cc(C(=O)N2CCC[C@@H]2C)n2c1COCC2)c1ccc(C(F)(F)F)s1` [16cf, 6-((S)-2-Methyl-pyrrolidine-1-carbonyl)-3,4-dihydro-1H-pyrrolo[2,1-c][1,4]oxazine-8-carboxylic acid [(R)-1-(5-trifluoromethyl-thiophen-2-yl)-propyl]-amide], the IC50 stood at 21 nM.

For the compound `CC[C@@H](NC(=O)c1cc(C(=O)N[C@H](CC)c2ccc(C#N)nc2)n2c1COCC2)c1ccccc1` [16ib, 3,4-Dihydro-1H-pyrrolo[2,1-c][1,4]oxazine-6,8-dicarboxylic acid 6-{[(R)-1-(6-cyano-pyridin-3-yl)-propyl]-amide} 8-[((R)-1-phenyl-propyl)-amide]], the IC50 is 1000 nM.

With `CC[C@@H](NC(=O)c1cc(C(=O)N2CCC[C@@H]2C)n2c1COCC2)c1cc(F)c(C#N)c(F)c1` [16ca, 6-((S)-2-Methyl-pyrrolidine-1-carbonyl)-3,4-dihydro-1H-pyrrolo[2,1-c][1,4]oxazine-8-carboxylic acid [(R)-1-(4-cyano-3,5-difluoro-phenyl)-propyl]-amide], the IC50 stood at 340 nM.

Regarding `CC[C@@H](NC(=O)c1cc(C(=O)N2CCC[C@@H]2C)n2c1COCC2)c1cc(F)ccc1Cl` [16w, 6-((S)-2-Methyl-pyrrolidine-1-carbonyl)-3,4-dihydro-1H-pyrrolo[2,1-c][1,4]oxazine-8-carboxylic acid [(R)-1-(2-chloro-5-fluoro-phenyl)-propyl]-amide], the IC50 was 40 nM.

For the compound `CC[C@@H](NC(=O)c1cc(C(=O)N2CCC[C@@H]2C)n2c1COC(C)(C)C2)c1ccc(C(F)(F)F)nc1` [16pi, 3,3-Dimethyl-6-((S)-2-methyl-pyrrolidine-1-carbonyl)-3,4-dihydro-1H-pyrrolo[2,1-c][1,4]oxazine-8-carboxylic acid [(R)-1-(6-trifluoromethyl-pyridin-3-yl)-propyl]-amide], the IC50 stood at 850 nM.

Consider `CC[C@@H](NC(=O)c1cc(C(=O)NCCc2ccc(F)cc2)n2c1CCCC2)c1ccccc1` [16mx, 5,6,7,8-Tetrahydro-indolizine-1,3-dicarboxylic acid 3-{[2-(4-fluoro-phenyl)-ethyl]-amide} 1-[((R)-1-phenyl-propyl)-amide]], for which the IC50 came out at 97 nM.

Take `CC[C@@H](NC(=O)c1cc(C(=O)N2CCCC2)n2c1COCC2)c1ccccc1` [16cx, 6-(Pyrrolidine-1-carbonyl)-3,4-dihydro-1H-pyrrolo[2,1-c][1,4]oxazine-8-carboxylic acid ((R)-1-phenyl-propyl)-amide]: the half-maximal inhibitory concentration (IC50) turned out to be 74 nM.

In general, inhibition refers to the percentage by which the read-out fell short of the control. One may read the IC50 as the concentration at which inhibition is half-maximal.
